In general, IC50 refers to the concentration at which inhibition is half-maximal. Low values mean greater potency in that assay, high ones weaker potency in that assay.

The target of this test is T1, hYAK1 (Homo sapiens, UniProt Q92630).
T1 construct: DET1/DET2-tagged full length hYAK1 was expressed in Drosophila sf9 cells; DET1/DET2 tag (purified on Ni column); made in house; host or cells: "Drosophila sf9 cells" as printed (insect cells)
T1 sequence (Q92630 1-528 isoform Q92630-2): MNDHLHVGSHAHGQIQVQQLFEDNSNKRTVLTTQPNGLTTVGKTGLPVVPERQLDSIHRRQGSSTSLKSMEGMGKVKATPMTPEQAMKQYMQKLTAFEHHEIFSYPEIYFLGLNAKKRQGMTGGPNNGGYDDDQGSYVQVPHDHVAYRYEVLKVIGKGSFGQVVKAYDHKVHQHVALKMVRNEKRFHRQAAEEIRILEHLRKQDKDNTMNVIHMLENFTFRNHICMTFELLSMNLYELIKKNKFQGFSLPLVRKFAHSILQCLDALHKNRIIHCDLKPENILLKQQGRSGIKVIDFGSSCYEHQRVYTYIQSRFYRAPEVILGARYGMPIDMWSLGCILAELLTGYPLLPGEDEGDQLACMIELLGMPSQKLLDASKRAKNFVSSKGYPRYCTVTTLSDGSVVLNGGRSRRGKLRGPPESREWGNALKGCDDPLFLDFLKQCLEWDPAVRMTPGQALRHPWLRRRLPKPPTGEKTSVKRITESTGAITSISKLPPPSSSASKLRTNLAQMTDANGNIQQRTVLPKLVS
The experiment in a line: FlashPlate kinase assay of hYAK1 (Ni-hYAK1). The test is classed as biochemical. The procedure: This same assay can be performed on a FlashPlate format in which the plate is coated with MBP or with the S164 peptide by incubation overnight at 4° C. in 100 ul of either substrate dissolved in Sodium Carbonate buffer, pH 8.8. When coating with MBP, a solution of 100 ug/ml MBP was used to coat wells with 100 ul (10 ug) MBP per well. When coating with Ser164, a solution of 0.4 mg/ml (0.25 mM) was used to coat wells with 100 ul (40 ug) Ser164 per well. An example of a FlashPlate assay protocol and typical results are given below:
• 1. Coat Maxisorp plates (Nunk, Immunoplate, Maxisorp™) with MBP or Ser164 as above. • 2. Wash plates once with kinase assay buffer (KB): 25 mM Hepes, pH 7.5; 0.2 mM NaV; 10 mM.-glycerol phosphate; 1 mM Na pyrophosphate • 3. Add enzyme (Ni-hYAK1, diluted in KB), DMSO or inhibitors (in KB) and keep on ice 30 min • 4. Add KB containing Mg/AJP to a [final] of 0.1 mM [.-33P]ATP and 10 mM MgCl2 • 5. Incubate with shaking, 1–2 hrs, RT • 6. Aspirate and wash 6×0.5 ml KB • 7. Read 33P incorporation in FP reader • 8. Blank=No enzyme added • 9. Reaction volume: 25, 50 or 100 ul • 10. 0.5 or 1.0 uCi 33P/0.1 mM ATP • 11. MBP-FP better than basic FP (in house coating) • 12. 37° C. incubation was not better (several time points) • 13. Other incubation times at RT were not better Results: […]

“And” between values parts separate entries of the source, which are not always exact repeats. Equal entries are not always repeated.

For the compound `NC1=N/C(=C2/CCNC(=O)c3[nH]c(Br)cc32)C(=O)N1` [SKF-108752], the IC50 by setting is: (0.1 ug hYAK1) 190 nM; (0.3 ug hYAK1) 130 nM and 160 nM.
In the case of `COC(=O)[C@@]1(O)C[C@H]2O[C@]1(C)n1c3ccccc3c3c4c(c5c6ccccc6n2c5c31)C(=O)NC4` [Example K252a], the IC50 (0.3 ug hYAK1) is 552 nM and 427 nM.

The values above are taken from US7087758B2, “Quinoline inhibitors of hyaki and hyak3 kinases” (SmithKline Beecham Corporation, priority 2001, dated 2006).
